Earlier results, collected in patent US20070160667A1, “Controlled release formulation of divalproex sodium” (priority 2006, published 2007).
Read-outs that look alike come from different tables or passages of the source.

In the case of `CCCC(CCC)C(=O)O` [valproic acid, 2-Propylpentanoic acid], the elimination half-life (in adults) is listed as “six and seventeen” and the elimination half-life (in children) is listed as “four and fourteen”.
